Consider 13 molecules from US20260022142A1, “MACROCYCLIC IMMUNOMODULATORS” (Bristol-Myers Squibb Company, priority 2022, published 2026).

Molecules are shown by their SMILES. Bridge positions count the residues as written; N and C are the ends. Square brackets hold non-standard residues; d marks the D form. Peptide text beside a SMILES is read from it. * marks the point of attachment. Phe(4-CONH2) = NC(=O)c1ccc(C[C@H](N)C(=O)O)cc1; Phe(4-COOH) = N[C@@H](Cc1ccc(C(=O)O)cc1)C(=O)O; Bip = N[C@@H](Cc1ccc(-c2ccccc2)cc1)C(=O)O; Phe(3-Me) = Cc1cccc(C[C@H](N)C(=O)O)c1; 3Pal = N[C@@H](Cc1cccnc1)C(=O)O; 4Pal = N[C@@H](Cc1ccncc1)C(=O)O; Cha = N[C@@H](CC1CCCCC1)C(=O)O; Cit = NC(=O)NCCC[C@H](N)C(=O)O; Carboxymethyl = O=C(O)C*; Orn = NCCC[C@H](N)C(=O)O; Aun = NCCCCCCCCCCC(=O)O; Dab = NCC[C@H](N)C(=O)O

For the assay, the target named is T1, PD-1/PD-L1 interaction (PE-labeled human PD-L1-Ig binding to Jurkat cell line over-expressing human PD-1) (Homo sapiens, UniProt Q15116).
T1 construct: expressed in transfected cells; host or cells: Jurkat
T1 sequence (Q15116 25-288): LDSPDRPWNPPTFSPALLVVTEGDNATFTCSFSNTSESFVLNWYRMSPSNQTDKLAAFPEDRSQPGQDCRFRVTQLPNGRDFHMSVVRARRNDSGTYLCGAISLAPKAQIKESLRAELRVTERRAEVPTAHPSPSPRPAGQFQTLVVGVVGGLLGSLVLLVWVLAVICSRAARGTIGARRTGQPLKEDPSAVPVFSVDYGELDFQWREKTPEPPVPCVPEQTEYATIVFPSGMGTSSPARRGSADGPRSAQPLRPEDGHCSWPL
In words: Jurkat-PD-1 Cell Binding High-Content Screening Assay (CBA). The class given is cell-based. The note with it: Jurkat cell line over-expressing human PD-1; PE-labeled PD-L1-Ig 20 nM final; read-out: Jurkat hPD1-PDL1 IC50. The procedure, abridged: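 First, compound is added to PD-1-expressing Jurkat cells in serum-containing DMEM and left 2 h at 37° C. Next, PE-conjugated PD-L1-Ig is introduced at 20 nM final concentration for 1 hour. Finally, cells are fixed in 4% paraformaldehyde with Hoechst 33342, washed and imaged.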
For the molecule `Cc1cccc(C[C@@H]2NC(=O)[C@H](CC(=O)O)NC(=O)[C@H](Cc3ccc(OCC(=O)O)cc3)NC(=O)[C@H](CCN)NC(=O)CSC[C@@H](C(=O)N[C@@H](CCN)C(=O)NCCCCCCCCCCC(=O)O)NC(=O)[C@H]([C@@H](C)O)NC(=O)[C@H](C(C)C)NC(=O)[C@H](CC3CCCCC3)NC(=O)[C@H](CCN)NC(=O)[C@@H](CC(C)C)NC(=O)[C@H](CCCN)NC(=O)[C@H](CCCNC(N)=O)NC(=O)[C@H](Cc3ccc(-c4ccccc4)cc3)NC(=O)[C@H](C(C)C)NC2=O)c1` [Compound 2821] ({CH2CO}-[Dab]Y(Carboxymethyl)D[Phe(3-Me)]V[Bip][Cit][Orn][dL][Dab][Cha]VTC[Dab][Aun]-OH; thioether N-14), the IC50 turned out to be 10.9 nM.
`Cc1cccc(C[C@@H]2NC(=O)[C@H](CC(=O)O)NC(=O)[C@H](Cc3ccc(OCC(=O)O)cc3)NC(=O)[C@H](CCCN)NC(=O)CSC[C@@H](C(=O)N[C@@H](CCN)C(=O)NCCCCCCCCCCC(=O)O)NC(=O)[C@H]([C@@H](C)O)NC(=O)[C@H](C(C)C)NC(=O)[C@H](CC3CCCCC3)NC(=O)[C@H](CCN)NC(=O)[C@@H](CC(C)C)NC(=O)[C@H](CCCN)NC(=O)[C@H](CCCNC(N)=O)NC(=O)[C@H](Cc3ccc(-c4ccccc4)cc3)NC(=O)[C@H](C(C)C)NC2=O)c1` [Compound 2822] ({CH2CO}-[Orn]Y(Carboxymethyl)D[Phe(3-Me)]V[Bip][Cit][Orn][dL][Dab][Cha]VTC[Dab][Aun]-OH; thioether N-14): the IC50 is 21.9 nM.
For `Cc1cccc(C[C@@H]2NC(=O)[C@H](CC(=O)O)NC(=O)[C@H](Cc3ccc(OCC(=O)O)cc3)NC(=O)[C@H](CCCCN)NC(=O)CSC[C@@H](C(=O)N[C@@H](CCN)C(=O)NCCCCCCCCCCC(=O)O)NC(=O)[C@H]([C@@H](C)O)NC(=O)[C@H](C(C)C)NC(=O)[C@H](CC3CCCCC3)NC(=O)[C@H](CCN)NC(=O)[C@@H](CC(C)C)NC(=O)[C@H](CCCN)NC(=O)[C@H](CCCNC(N)=O)NC(=O)[C@H](Cc3ccc(-c4ccccc4)cc3)NC(=O)[C@H](C(C)C)NC2=O)c1` [Compound 2823] ({CH2CO}-KY(Carboxymethyl)D[Phe(3-Me)]V[Bip][Cit][Orn][dL][Dab][Cha]VTC[Dab][Aun]-OH; thioether N-14), the IC50 was 16.4 nM.
With `Cc1cccc(C[C@@H]2NC(=O)[C@H](CC(=O)O)NC(=O)[C@H](Cc3ccc(OCC(=O)O)cc3)NC(=O)[C@H](CCCNC(N)=O)NC(=O)CSC[C@@H](C(=O)N[C@@H](CCN)C(=O)NCCCCCCCCCCC(=O)O)NC(=O)[C@H]([C@@H](C)O)NC(=O)[C@H](C(C)C)NC(=O)[C@H](CC3CCCCC3)NC(=O)[C@H](CCN)NC(=O)[C@@H](CC(C)C)NC(=O)[C@H](CCCN)NC(=O)[C@H](CCCNC(N)=O)NC(=O)[C@H](Cc3ccc(-c4ccccc4)cc3)NC(=O)[C@H](C(C)C)NC2=O)c1` [Compound 2824] ({CH2CO}-[Cit]Y(Carboxymethyl)D[Phe(3-Me)]V[Bip][Cit][Orn][dL][Dab][Cha]VTC[Dab][Aun]-OH; thioether N-14), the IC50 was determined as 25.5 nM.
For the molecule `Cc1cccc(C[C@@H]2NC(=O)[C@H](CC(=O)O)NC(=O)[C@H](Cc3ccc(OCC(=O)O)cc3)NC(=O)[C@H](Cc3ccccc3)NC(=O)CSC[C@@H](C(=O)N[C@@H](CCN)C(=O)NCCCCCCCCCCC(=O)O)NC(=O)[C@H]([C@@H](C)O)NC(=O)[C@H](C(C)C)NC(=O)[C@H](CC3CCCCC3)NC(=O)[C@H](CCN)NC(=O)[C@@H](CC(C)C)NC(=O)[C@H](CCCN)NC(=O)[C@H](CCCNC(N)=O)NC(=O)[C@H](Cc3ccc(-c4ccccc4)cc3)NC(=O)[C@H](C(C)C)NC2=O)c1` [Compound 2825] ({CH2CO}-FY(Carboxymethyl)D[Phe(3-Me)]V[Bip][Cit][Orn][dL][Dab][Cha]VTC[Dab][Aun]-OH; thioether N-14), the IC50 was found to be 201 nM.
The same measure for `Cc1cccc(C[C@@H]2NC(=O)[C@H](CC(=O)O)NC(=O)[C@H](Cc3ccc(OCC(=O)O)cc3)NC(=O)[C@H](Cc3ccc(O)cc3)NC(=O)CSC[C@@H](C(=O)N[C@@H](CCN)C(=O)NCCCCCCCCCCC(=O)O)NC(=O)[C@H]([C@@H](C)O)NC(=O)[C@H](C(C)C)NC(=O)[C@H](CC3CCCCC3)NC(=O)[C@H](CCN)NC(=O)[C@@H](CC(C)C)NC(=O)[C@H](CCCN)NC(=O)[C@H](CCCNC(N)=O)NC(=O)[C@H](Cc3ccc(-c4ccccc4)cc3)NC(=O)[C@H](C(C)C)NC2=O)c1` [Compound 2826] ({CH2CO}-YY(Carboxymethyl)D[Phe(3-Me)]V[Bip][Cit][Orn][dL][Dab][Cha]VTC[Dab][Aun]-OH; thioether N-14): 62.2 nM.
For `Cc1cccc(C[C@@H]2NC(=O)[C@H](CC(=O)O)NC(=O)[C@H](Cc3ccc(OCC(=O)O)cc3)NC(=O)[C@H](Cc3ccc(C(N)=O)cc3)NC(=O)CSC[C@@H](C(=O)N[C@@H](CCN)C(=O)NCCCCCCCCCCC(=O)O)NC(=O)[C@H]([C@@H](C)O)NC(=O)[C@H](C(C)C)NC(=O)[C@H](CC3CCCCC3)NC(=O)[C@H](CCN)NC(=O)[C@@H](CC(C)C)NC(=O)[C@H](CCCN)NC(=O)[C@H](CCCNC(N)=O)NC(=O)[C@H](Cc3ccc(-c4ccccc4)cc3)NC(=O)[C@H](C(C)C)NC2=O)c1` [Compound 2827] ({CH2CO}-[Phe(4-CONH2)]Y(Carboxymethyl)D[Phe(3-Me)]V[Bip][Cit][Orn][dL][Dab][Cha]VTC[Dab][Aun]-OH; thioether N-14), the IC50 turned out to be 13.1 nM.
Take `Cc1cccc(C[C@@H]2NC(=O)[C@H](CC(=O)O)NC(=O)[C@H](Cc3ccc(OCC(=O)O)cc3)NC(=O)[C@H](Cc3ccc(OCC(=O)O)cc3)NC(=O)CSC[C@@H](C(=O)N[C@@H](CCN)C(=O)NCCCCCCCCCCC(=O)O)NC(=O)[C@H]([C@@H](C)O)NC(=O)[C@H](C(C)C)NC(=O)[C@H](CC3CCCCC3)NC(=O)[C@H](CCN)NC(=O)[C@@H](CC(C)C)NC(=O)[C@H](CCCN)NC(=O)[C@H](CCCNC(N)=O)NC(=O)[C@H](Cc3ccc(-c4ccccc4)cc3)NC(=O)[C@H](C(C)C)NC2=O)c1` [Compound 2828] ({CH2CO}-Y(Carboxymethyl)Y(Carboxymethyl)D[Phe(3-Me)]V[Bip][Cit][Orn][dL][Dab][Cha]VTC[Dab][Aun]-OH; thioether N-14): the IC50 came out at 77.4 nM.
Consider `Cc1cccc(C[C@@H]2NC(=O)[C@H](CC(=O)O)NC(=O)[C@H](Cc3ccc(OCC(=O)O)cc3)NC(=O)[C@H](Cc3ccc(C(=O)O)cc3)NC(=O)CSC[C@@H](C(=O)N[C@@H](CCN)C(=O)NCCCCCCCCCCC(=O)O)NC(=O)[C@H]([C@@H](C)O)NC(=O)[C@H](C(C)C)NC(=O)[C@H](CC3CCCCC3)NC(=O)[C@H](CCN)NC(=O)[C@@H](CC(C)C)NC(=O)[C@H](CCCN)NC(=O)[C@H](CCCNC(N)=O)NC(=O)[C@H](Cc3ccc(-c4ccccc4)cc3)NC(=O)[C@H](C(C)C)NC2=O)c1` [Compound 2829] ({CH2CO}-[Phe(4-COOH)]Y(Carboxymethyl)D[Phe(3-Me)]V[Bip][Cit][Orn][dL][Dab][Cha]VTC[Dab][Aun]-OH; thioether N-14), for which the IC50 was 162 nM.
Regarding `Cc1cccc(C[C@@H]2NC(=O)[C@H](CC(=O)O)NC(=O)[C@H](Cc3ccc(OCC(=O)O)cc3)NC(=O)[C@H](CCC(N)=O)NC(=O)CSC[C@@H](C(=O)N[C@@H](CCN)C(=O)NCCCCCCCCCCC(=O)O)NC(=O)[C@H]([C@@H](C)O)NC(=O)[C@H](C(C)C)NC(=O)[C@H](CC3CCCCC3)NC(=O)[C@H](CCN)NC(=O)[C@@H](CC(C)C)NC(=O)[C@H](CCCN)NC(=O)[C@H](CCCNC(N)=O)NC(=O)[C@H](Cc3ccc(-c4ccccc4)cc3)NC(=O)[C@H](C(C)C)NC2=O)c1` [Compound 2830] ({CH2CO}-QY(Carboxymethyl)D[Phe(3-Me)]V[Bip][Cit][Orn][dL][Dab][Cha]VTC[Dab][Aun]-OH; thioether N-14), the IC50 was 26 nM.
Regarding `Cc1cccc(C[C@@H]2NC(=O)[C@H](CC(=O)O)NC(=O)[C@H](Cc3ccc(OCC(=O)O)cc3)NC(=O)[C@H](Cc3ccncc3)NC(=O)CSC[C@@H](C(=O)N[C@@H](CCN)C(=O)NCCCCCCCCCCC(=O)O)NC(=O)[C@H]([C@@H](C)O)NC(=O)[C@H](C(C)C)NC(=O)[C@H](CC3CCCCC3)NC(=O)[C@H](CCN)NC(=O)[C@@H](CC(C)C)NC(=O)[C@H](CCCN)NC(=O)[C@H](CCCNC(N)=O)NC(=O)[C@H](Cc3ccc(-c4ccccc4)cc3)NC(=O)[C@H](C(C)C)NC2=O)c1` [Compound 2831] ({CH2CO}-[4Pal]Y(Carboxymethyl)D[Phe(3-Me)]V[Bip][Cit][Orn][dL][Dab][Cha]VTC[Dab][Aun]-OH; thioether N-14), the IC50 is 43.2 nM.
The same measure for `Cc1cccc(C[C@@H]2NC(=O)[C@H](CC(=O)O)NC(=O)[C@H](Cc3ccc(OCC(=O)O)cc3)NC(=O)[C@H](Cc3cccnc3)NC(=O)CSC[C@@H](C(=O)N[C@@H](CCN)C(=O)NCCCCCCCCCCC(=O)O)NC(=O)[C@H]([C@@H](C)O)NC(=O)[C@H](C(C)C)NC(=O)[C@H](CC3CCCCC3)NC(=O)[C@H](CCN)NC(=O)[C@@H](CC(C)C)NC(=O)[C@H](CCCN)NC(=O)[C@H](CCCNC(N)=O)NC(=O)[C@H](Cc3ccc(-c4ccccc4)cc3)NC(=O)[C@H](C(C)C)NC2=O)c1` [Compound 2832] ({CH2CO}-[3Pal]Y(Carboxymethyl)D[Phe(3-Me)]V[Bip][Cit][Orn][dL][Dab][Cha]VTC[Dab][Aun]-OH; thioether N-14): 48 nM; for `Cc1cccc(C[C@@H]2NC(=O)[C@H](CC(=O)O)NC(=O)[C@H](Cc3ccc(OCC(=O)O)cc3)NC(=O)[C@H](CCCNC(=N)N)NC(=O)CSC[C@@H](C(=O)N[C@@H](CCN)C(=O)NCCCCCCCCCCC(=O)O)NC(=O)[C@H]([C@@H](C)O)NC(=O)[C@H](C(C)C)NC(=O)[C@H](CC3CCCCC3)NC(=O)[C@H](CCN)NC(=O)[C@@H](CC(C)C)NC(=O)[C@H](CCCN)NC(=O)[C@H](CCCNC(N)=O)NC(=O)[C@H](Cc3ccc(-c4ccccc4)cc3)NC(=O)[C@H](Cc3ccc(O)cc3)NC2=O)c1` [Compound 2833] ({CH2CO}-RY(Carboxymethyl)D[Phe(3-Me)]Y[Bip][Cit][Orn][dL][Dab][Cha]VTC[Dab][Aun]-OH; thioether N-14): 5.2 nM.

By IC50 is commonly meant the midpoint of a concentration-inhibition curve.
